These results are taken from patent US20060276464A1, “Diarylsulfone sulfonamides and use thereof” (Wyeth, priority 2005, published 2006).

Data set [1] deals with T1, SFRP-1 (Homo sapiens, UniProt Q8N474).
T1 sequence (Q8N474 32-314): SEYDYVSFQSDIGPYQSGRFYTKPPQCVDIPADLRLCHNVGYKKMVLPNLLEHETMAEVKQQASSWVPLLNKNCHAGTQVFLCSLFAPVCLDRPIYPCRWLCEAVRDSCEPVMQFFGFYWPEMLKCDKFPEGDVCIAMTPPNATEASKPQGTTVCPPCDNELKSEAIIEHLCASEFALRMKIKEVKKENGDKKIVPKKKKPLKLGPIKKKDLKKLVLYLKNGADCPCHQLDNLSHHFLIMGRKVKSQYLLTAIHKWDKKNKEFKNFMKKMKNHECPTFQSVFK
In words: Cell-based assay for in vitro measurement of SFRP-1/SARP2 antagonist activity (U2OS cells co-transfected with 16x TCF-tk-Luciferase reporter, Wnt and hSFRP-1).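 On all read-outs here: U2OS cells co-transfected with a TCF-tk luciferase reporter, a Wnt vector, hSFRP-1 or empty vector and CMV-βgal, luciferase luminescence read in cell lysates alongside βgal activity.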 The following applies: for Fold Induction with SFRP-1 / Fold Induction without SFRP-1: Conc 15 μM; for fold induction at 10 µM / fold induction at 15 µM / fold induction at 14 µM: U2OS; for fold induction at 10 µM: read-out: Fold Induction with SFRP-1, U2OS cells, single dose 10 μM, luciferase reporter, fold induction over SFRP-1 control.

The target in data set [2] is T1, SFRP-1. In words: Fluorescence polarization binding assay (competitive displacement of a probe compound from SFRP-1).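 Further: test compound competes with a fluorescent probe held by SFRP-1, seen as a drop in probe anisotropy after incubation in darkness, with anisotropy as function of rising compound dose.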 The following applies: fluorescence anisotropy, 45 nM SFRP-1, 20 nM probe. A general note: Fluorescence polarisation rises when a labelled molecule tumbles more slowly, as on binding a larger partner.
[3] abbreviates: read-out: Fold Induction with SFRP-1, Conc 15 μM, with SFRP-1, fold induction over SFRP-1 control, single dose.
Setting [4] is: read-out: Fold Induction without SFRP-1, Conc 15 μM, without SFRP-1, single dose.
Setting [5] is: with SFRP-1, fold induction over SFRP-1 control, single dose.

Where “and” joins values, the source holds several entries; their conditions need not be identical. Equal values may be shown once. Read-outs that look alike come from different tables or passages of the source.

In general, IC50 refers to the midpoint of a concentration-inhibition curve. Read a low IC50 as higher potency. Consider `CC(C)c1ccc(S(=O)(=O)c2ccc(N3C[C@@H](C)NC[C@@H]3C)cc2)cc1S(=O)(=O)NC1CCOCC1` (relative stereo) [Example 627, 5-({4-trans-2,5-dimethylpiperazin-1-ylphenyl}sulfonyl)-2-isopropyl-N-(tetrahydro-2H-pyran-4-yl)benzenesulfonamide], for which, at SFRP-1 [1] (single dose, luciferase reporter, fold induction over SFRP-1 control, cells with SFRP-1), the “Fold Induction with SFRP-1” value is 3.4 fold. Moreover, the “Fold Induction without SFRP-1” value on SFRP-1 [1] (single dose, luciferase reporter, cells without SFRP-1 (specificity control)) is on record as 1.1 fold. Moreover, the IC50 on SFRP-1 [2] is 5 µM.

In general, EC50 refers to the midpoint of the concentration-response curve. Low values mean greater potency, high ones weaker potency. In the case of `C[C@@H](NS(=O)(=O)c1cc(S(=O)(=O)c2ccccc2)ccc1Cl)[C@H](O)c1ccccc1` (relative stereo) [Example 676, 2-chloro-N-[(1R*,2R*)-2-hydroxy-1-methyl-2-phenylethyl]-5-(phenylsulfonyl)benzenesulfonamide], on SFRP-1 [1], the EC50 was 8.9 µM and the fold induction at 10 µM amounted to 2.6. Moreover, on SFRP-1 [2], the half-maximal inhibitory concentration (IC50) is 9 µM.

In the case of `C[C@@H](NS(=O)(=O)c1cc(S(=O)(=O)c2ccccc2)ccc1C(F)(F)F)[C@H](O)c1ccccc1` (relative stereo) [Example 684, N-[(1R*,2R*)-2-hydroxy-1-methyl-2-phenylethyl]-5-(phenylsulfonyl)-2-(trifluoromethyl)benzenesulfonamide], at SFRP-1 [1], the half-maximal effective concentration (EC50) amounted to 29.3 µM and the fold induction at 10 µM was 1.7. Besides, the IC50 on SFRP-1 [2] came to 1 µM.

`Cc1ccc(S(=O)(=O)c2ccc(F)cc2)cc1S(=O)(=O)NCCN1CCOCC1` [Example 169, 5-[(4-fluorophenyl)sulfonyl]-2-methyl-N-(2-morpholin-4-ylethyl)benzenesulfonamide]: the values for the fold induction at 15 µM on SFRP-1 [1] (setting [3]) and on SFRP-1 [1] (setting [4]) were 2.6 and 0.9, respectively. Also, the IC50 on SFRP-1 [2] amounted to 13 µM.

Take `Cc1ccc(S(=O)(=O)c2ccc(F)cc2)cc1S(=O)(=O)NCCCn1ccnc1` [Example 177, 5-[(4-fluorophenyl)sulfonyl]-N-[3-(1H-imidazol-1-yl)propyl]-2-methylbenzenesulfonamide]: the fold induction at 14 µM is 2.9 at SFRP-1 [1] (read-out: Fold Induction with SFRP-1, Conc 14 μM, with SFRP-1, fold induction over SFRP-1 control, single dose) and 1 at SFRP-1 [1] (read-out: Fold Induction without SFRP-1, Conc 14 μM, without SFRP-1, single dose). Moreover, the fold induction at 15 µM was 3.6 at SFRP-1 [1] (setting [3]) and 1 on SFRP-1 [1] (setting [4]). The IC50 on SFRP-1 [2] stood at 2.9 µM.

Take `COC(=O)CCNS(=O)(=O)c1cc(S(=O)(=O)c2ccccc2)ccc1C` [Example 204, methyl N-{[2-methyl-5-(phenylsulfonyl)phenyl]sulfonyl}-beta-alaninate]: the values for the fold induction at 15 µM at SFRP-1 [1] (setting [3]) and at SFRP-1 [1] (setting [4]) were 3.4 and 1.1, respectively. Moreover, the IC50 on SFRP-1 [2] came to 8 µM.

Turning to `Cc1ccc(S(=O)(=O)c2ccccc2)cc1S(=O)(=O)NCCc1ccccn1` [Example 205, 2-methyl-5-(phenylsulfonyl)-N-(2-pyridin-2-ylethyl)benzenesulfonamide], the fold induction at 15 µM turned out to be 2.3 at SFRP-1 [1] (setting [3]) and 0.8 on SFRP-1 [1] (setting [4]). At SFRP-1 [2], this compound registered an IC50 of 3 µM.

In the case of `Cc1ccc(S(=O)(=O)c2ccccc2)cc1S(=O)(=O)NCCCn1ccnc1` [Example 219, N-[3-(1H-imidazol-1-yl)propyl]-2-methyl-5-(phenylsulfonyl)benzenesulfonamide], the “Fold Induction with SFRP-1” value on SFRP-1 [1] (setting [5]) stood at 3.6 fold. Further, the fold induction at 15 µM came to 3 at SFRP-1 [1] (setting [3]) and 1.1 at SFRP-1 [1] (setting [4]). In addition, the 50% inhibitory concentration (IC50) on SFRP-1 [2] is 3 µM and 1.1 µM and 2.1 µM.

On to `CCc1ccc(S(=O)(=O)c2ccccc2)cc1S(=O)(=O)NCCc1ccccn1` [Example 223, 2-ethyl-5-(phenylsulfonyl)-N-(2-pyridin-2-ylethyl)benzenesulfonamide], for which the fold induction at 15 µM at SFRP-1 [1] (setting [3]) is 2.6; on SFRP-1 [1] (setting [4]) it was 0.8. The IC50 on SFRP-1 [2] was found to be 0.9 µM.

As for `CCc1ccc(S(=O)(=O)c2ccccc2)cc1S(=O)(=O)NCCN1CCOCC1` [Example 226, 2-ethyl-N-(2-morpholin-4-ylethyl)-5-(phenylsulfonyl)benzenesulfonamide], the fold induction at 15 µM is 3 on SFRP-1 [1] (setting [3]) and 0.7 on SFRP-1 [1] (setting [4]). At SFRP-1 [2], this compound returned an IC50 of 2.6 µM.

Turning to `CCc1ccc(S(=O)(=O)c2ccccc2)cc1S(=O)(=O)NCCCOC` [Example 227, 2-ethyl-N-(3-methoxypropyl)-5-(phenylsulfonyl)benzenesulfonamide], the values for the fold induction at 15 µM at SFRP-1 [1] (setting [3]) and on SFRP-1 [1] (setting [4]) were 2.7 and 0.8, respectively. In addition, the IC50 on SFRP-1 [2] was found to be 4 µM.

Regarding `CCc1ccc(S(=O)(=O)c2ccccc2)cc1S(=O)(=O)NCCCN(C)C` [Example 228, N-[3-(dimethylamino)propyl]-2-ethyl-5-(phenylsulfonyl)benzenesulfonamide], the fold induction at 15 µM at SFRP-1 [1] (setting [3]) came out at 3.3; at SFRP-1 [1] (setting [4]) it was 1.2. For the same compound, the concentration for half-maximal inhibition (IC50) on SFRP-1 [2] was 8 µM and 15 µM.

Regarding `CCc1ccc(S(=O)(=O)c2ccccc2)cc1S(=O)(=O)NCCCN(CC)CC` [Example 230, N-[3-(diethylamino)propyl]-2-ethyl-5-(phenylsulfonyl)benzene sulfonamide], the fold induction at 15 µM on SFRP-1 [1] (setting [3]) worked out at 3.2; at SFRP-1 [1] (setting [4]) it was 1.2. The compound further returned a 50% inhibitory concentration (IC50) at SFRP-1 [2] of 16 µM.

As to `CCc1ccc(S(=O)(=O)c2ccccc2)cc1S(=O)(=O)NCCCn1ccnc1` [Example 231, 2-ethyl-N-[3-(1H-imidazol-1-yl)propyl]-5-(phenylsulfonyl)benzenesulfonamide], on SFRP-1 [1] (setting [5]), the “Fold Induction with SFRP-1” value is reported as 2.8 fold. At SFRP-1 [1] (without SFRP-1, single dose), the “Fold Induction without SFRP-1” value was found to be 0.8 fold. In addition, the results for the fold induction at 15 µM on SFRP-1 [1] (setting [3]) and at SFRP-1 [1] (setting [4]) were 3.4 and 1, respectively. Further, at SFRP-1 [2], the IC50 is 0.3 µM and 0.6 µM.

Turning to `CC(C)c1ccc(S(=O)(=O)c2ccccc2)cc1S(=O)(=O)NCCc1ccccc1` [Example 295, 2-isopropyl-N-(2-phenylethyl)-5-(phenylsulfonyl)benzenesulfonamide], the results for the fold induction at 15 µM at SFRP-1 [1] (setting [3]) and on SFRP-1 [1] (setting [4]) were 2.7 and 1.5, respectively. Besides, on SFRP-1 [2], the IC50 came to 0.3 µM.

Turning to `CC(C)c1ccc(S(=O)(=O)c2ccccc2)cc1S(=O)(=O)NCCCn1ccnc1` [Example 296, N-[3-(1H-imidazol-1-yl)propyl]-2-isopropyl-5-(phenylsulfonyl)benzenesulfonamide], the fold induction at 15 µM at SFRP-1 [1] (setting [3]) came to 3.3; on SFRP-1 [1] (setting [4]) it was 1.4. At SFRP-1 [2], the IC50 was found to be 0.2 µM.

In turn, `CC(C)C(CO)NS(=O)(=O)c1cc(S(=O)(=O)c2ccccc2)ccc1C(F)(F)F` (centres unmarked) [Example 769, N-[1-(hydroxymethyl)-2-methylpropyl]-5-(phenylsulfonyl)-2-(trifluoromethyl)benzenesulfonamide] had an IC50 at SFRP-1 [2] of 13 µM.

On to `CN(CCCNS(=O)(=O)c1cc(S(=O)(=O)c2ccccc2)ccc1C(F)(F)F)C(=O)N1CCN(C(=O)OC(C)(C)C)CC1` [Example 974, tert-butyl 4-({methyl[3-({[5-(phenylsulfonyl)-2-(trifluoromethyl)phenyl]sulfonyl}amino)propyl]amino}carbonyl)piperazine-1-carboxylate], for which the IC50 on SFRP-1 [2] was found to be 4 µM.

On to `O=C(O)c1cccc(-c2ccc(CNS(=O)(=O)c3cc(S(=O)(=O)c4ccccc4)ccc3C(F)(F)F)cc2)c1` [Example 976, 4′-[({[5-(phenylsulfonyl)-2-(trifluoromethyl)phenyl]sulfonyl}amino)methyl]biphenyl-3-carboxylic acid], for which the half-inhibitory concentration (IC50) on SFRP-1 [2] is 6 µM.

As to `CN(CCNS(=O)(=O)c1cc(S(=O)(=O)c2ccccc2)ccc1C(F)(F)F)CC(=O)O` [Example 981, N-methyl-N-[2-({[5-(phenylsulfonyl)-2-(trifluoromethyl)phenyl]sulfonyl}amino)ethyl]glycine], on SFRP-1 [2], the concentration for half-maximal inhibition (IC50) was found to be 13 µM.

In the case of `CN(CCNS(=O)(=O)c1cc(S(=O)(=O)c2ccccc2)ccc1C(F)(F)F)CCC(=O)O` [Example 982, N-methyl-N-[2-({[5-(phenylsulfonyl)-2-(trifluoromethyl)phenyl]sulfonyl}amino)ethyl]-β-alanine], on SFRP-1 [2], the IC50 amounted to 8 µM.

`N#Cc1cccc(N2CCC(NS(=O)(=O)c3cc(S(=O)(=O)c4ccccc4)ccc3C(F)(F)F)CC2)c1` [Example 986, N-[1-(3-cyanophenyl)piperidin-4-yl]-5-(phenylsulfonyl)-2-(trifluoromethyl)benzenesulfonamide] gave an IC50 on SFRP-1 [2] of 0.8 µM.

As for `CN(CCNS(=O)(=O)c1cc(S(=O)(=O)c2ccccc2)ccc1C(F)(F)F)C(=O)N(C)C1CCN(C(=O)OC(C)(C)C)CC1` [Example 989, tert-butyl 4-[methyl({methyl[2-({[5-(phenylsulfonyl)-2-(trifluoromethyl)phenyl]sulfonyl}amino)ethyl]amino}carbonyl)amino]piperidine-1-carboxylate], the IC50 on SFRP-1 [2] was 3 µM.

Compound `O=S(=O)(NCc1cccc(Br)c1)c1cc(S(=O)(=O)c2ccccc2)ccc1C(F)(F)F` [Example 994, N-(3-bromobenzyl)-5-(phenylsulfonyl)-2-(trifluoromethyl)benzenesulfonamide] gave an IC50 on SFRP-1 [2] of 2.3 µM.

Take `CN(C(=O)NCCNS(=O)(=O)c1cc(S(=O)(=O)c2ccccc2)ccc1C(F)(F)F)C1CCN(C(=O)OC(C)(C)C)CC1` [Example 1045, tert-butyl 4-[methyl({[2-({[5-(phenylsulfonyl)-2-(trifluoromethyl)phenyl]sulfonyl}amino)ethyl]amino}carbonyl)amino]piperidine-1-carboxylate]: at SFRP-1 [2], the IC50 is 4 µM.
